The first test has as its system recombinant NL-Rluc virus. Description: microbe, parasite or virus in culture. The class given is cell-based, HIV. Conditions: Human immunodeficiency virus 1, MT2, 120 h, NL-RLuc virus infecting MT-2 cells, 5 days of incubation, luciferase readout; at least 2 experiments; serum condition not given; read-out: EC50.
Broadly, the EC50 is the concentration at which the effect is half-maximal. With `Cc1nc2cc(-c3nc4cc(Cl)ccc4[nH]3)nn2c(-c2cc(F)c3c(c2C)CCCO3)c1[C@H](OC(C)(C)C)C(=O)O` [Example 1, (2S)-2-(tert-Butoxy)-2-(2-(5-chloro-1H-benzo[d]imidazol-2-yl)-7-(8-fluoro-5-methylchroman-6-yl)-5-methylpyrazolo[1,5-a]pyrimidin-6-yl)acetic acid], the concentration giving a half-maximal response (EC50) stood at 47 nM.

For `Cc1nc2cc(-c3ccc(Cc4ccc(F)cc4)s3)nn2c(N2CCC(C)(C)CC2)c1[C@H](OC(C)(C)C)C(=O)O` [Example 25, (S)-2-(tert-Butoxy)-2-(7-(4,4-dimethylpiperidin-1-yl)-2-(5-(4-fluorobenzyl)thiophen-2-yl)-5-methylpyrazolo[1,5-a]pyrimidin-6-yl)acetic acid], the EC50 came out at 23 nM.

As for `Cc1nc2cc(-n3cc(Cc4ccccc4)c(Cl)n3)nn2c(N2CCC(C)(C)CC2)c1[C@H](OC(C)(C)C)C(=O)O` [Example 38, (S)-2-(2-(4-Benzyl-3-chloro-1H-pyrazol-1-yl)-7-(4,4-dimethylpiperidin-1-yl)-5-methylpyrazolo[1,5-a]pyrimidin-6-yl)-2-(tert-butoxy)acetic acid], the EC50 was determined as 23 nM.

In the case of `Cc1nc2cc(-c3ncc(Cc4ccc(F)cc4)s3)nn2c(N2CC=C(c3ccccc3)CC2)c1[C@H](OC(C)(C)C)C(=O)O` [Example 20, (S)-2-(tert-Butoxy)-2-(2-(5-(4-fluorobenzyl)thiazol-2-yl)-5-methyl-7-(4-phenyl-5,6-dihydropyridin-1(2H)-yl)pyrazolo[1,5-a]pyrimidin-6-yl)acetic acid], the EC50 was 877 nM.

Consider `Cc1nc2cc(-c3ncc(Cc4ccc(F)cc4)s3)nn2c(N2CCC(C)(O)CC2)c1[C@H](OC(C)(C)C)C(=O)O` [Example 18, (S)-2-(tert-Butoxy)-2-(2-(5-(4-fluorobenzyl)thiazol-2-yl)-7-(4-hydroxy-4-methylpiperidin-1-yl)-5-methylpyrazolo[1,5-a]pyrimidin-6-yl)acetic acid], for which the EC50 is 143 nM.

For the molecule `CCC1(C)CCN(c2c([C@H](OC(C)(C)C)C(=O)O)c(C)nc3cc(-c4ncc(Cc5ccc(F)cc5)s4)nn23)CC1` [Example 17, (S)-2-(tert-Butoxy)-2-(7-(4-ethyl-4-methylpiperidin-1-yl)-2-(5-(4-fluorobenzyl)thiazol-2-yl)-5-methylpyrazolo[1,5-a]pyrimidin-6-yl)acetic acid], the concentration for a half-maximal effect (EC50) was determined as 13 nM.

Consider `Cc1nc2cc(-c3ncc(Cc4ccc(F)cc4)o3)nn2c(C2=CCC(C)(C)CC2)c1[C@H](OC(C)(C)C)C(=O)O` [Example 12, (S)-2-(tert-Butoxy)-2-(7-(4,4-dimethylcyclohex-1-en-1-yl)-2-(5-(4-fluorobenzyl)oxazol-2-yl)-5-methylpyrazolo[1,5-a]pyrimidin-6-yl)acetic acid], for which the EC50 was 13 nM.

With `Cc1nc2cc(-c3ncc(Cc4ccc(F)cc4)s3)nn2c(N2CCC(C)(CO)CC2)c1[C@H](OC(C)(C)C)C(=O)O` [Example 21, (S)-2-(tert-Butoxy)-2-(2-(5-(4-fluorobenzyl)thiazol-2-yl)-7-(4-(hydroxymethyl)-4-methylpiperidin-1-yl)-5-methylpyrazolo[1,5-a]pyrimidin-6-yl)acetic acid], the EC50 is 75 nM.

As for `Cc1nc2cc(N3CCN(Cc4ccccc4)C3=O)nn2c(N2CCC(C)(C)CC2)c1[C@H](OC(C)(C)C)C(=O)O` [Example 26, (S)-2-(2-(3-Benzyl-2-oxoimidazolidin-1-yl)-7-(4,4-dimethylpiperidin-1-yl)-5-methylpyrazolo[1,5-a]pyrimidin-6-yl)-2-(tert-butoxy)acetic acid], the EC50 came to 145 nM.

In the case of `Cc1nc2cc(-c3nc4cc(Cl)ccc4n3C)nn2c(-c2cc(F)c3c(c2C)CCCO3)c1[C@H](OC(C)(C)C)C(=O)O` [Example 2, (2S)-2-(tert-Butoxy)-2-(2-(5-chloro-1-methyl-1H-benzo[d]imidazol-2-yl)-7-(8-fluoro-5-methylchroman-6-yl)-5-methylpyrazolo[1,5-a]pyrimidin-6-yl)acetic acid], the EC50 was 50 nM.

For the molecule `Cc1nc2cc(-c3ncc(Cc4ccc(F)cc4)s3)nn2c(-c2cc(F)c3c(c2C)CCCO3)c1[C@H](OC(C)(C)C)C(=O)O` [Example 5, (2S)-2-(tert-Butoxy)-2-(7-(8-fluoro-5-methylchroman-6-yl)-2-(5-(4-fluorobenzyl)thiazol-2-yl)-5-methylpyrazolo[1,5-a]pyrimidin-6-yl)acetic acid], the EC50 is 3 nM.

Consider `Cc1nc2cc(-c3ncc(Cc4ccc(F)cc4)s3)nn2c(N2CCC(C)(C3CC3)CC2)c1[C@H](OC(C)(C)C)C(=O)O` [Example 24, (S)-2-(tert-Butoxy)-2-(7-(4-cyclopropyl-4-methylpiperidin-1-yl)-2-(5-(4-fluorobenzyl)thiazol-2-yl)-5-methylpyrazolo[1,5-a]pyrimidin-6-yl)acetic acid], for which the EC50 worked out at 26 nM.

`Cc1nc2cc(-c3ncc(Cc4ccc(F)cc4)o3)nn2c(-c2cc(F)c3c(c2C)CCCO3)c1[C@H](OC(C)(C)C)C(=O)O` [Example 6, (2S)-2-(tert-Butoxy)-2-(7-(8-fluoro-5-methylchroman-6-yl)-2-(5-(4-fluorobenzyl)oxazol-2-yl)-5-methylpyrazolo[1,5-a]pyrimidin-6-yl)acetic acid]: the EC50 came out at 6 nM.

Turning to `Cc1nc2cc(-c3nc4cc(-c5ccccc5)ccc4[nH]3)nn2c(-c2cc(F)c3c(c2C)CCCO3)c1[C@H](OC(C)(C)C)C(=O)O` [Example 4, (2S)-2-(tert-Butoxy)-2-(7-(8-fluoro-5-methylchroman-6-yl)-5-methyl-2-(5-phenyl-1H-benzo[d]imidazol-2-yl)pyrazolo[1,5-a]pyrimidin-6-yl)acetic acid], the EC50 was determined as 133 nM.

Turning to `Cc1nc2cc(-c3ncc(-c4cccc(F)c4)s3)nn2c(-c2cc(F)c3c(c2C)CCCO3)c1[C@H](OC(C)(C)C)C(=O)O` [Example 9, (2S)-2-(tert-Butoxy)-2-(7-(8-fluoro-5-methylchroman-6-yl)-2-(5-(3-fluorophenyl)thiazol-2-yl)-5-methylpyrazolo[1,5-a]pyrimidin-6-yl)acetic acid], the EC50 amounted to 28 nM.

`CC1=CCN(c2c([C@H](OC(C)(C)C)C(=O)O)c(C)nc3cc(-c4ncc(Cc5ccc(F)cc5)s4)nn23)CC1` [Example 19, (S)-2-(tert-Butoxy)-2-(2-(5-(4-fluorobenzyl)thiazol-2-yl)-5-methyl-7-(4-methyl-5,6-dihydropyridin-1(2H)-yl)pyrazolo[1,5-a]pyrimidin-6-yl)acetic acid]: the EC50 was determined as 105 nM.

Consider `Cc1nc2cc(-c3cnn(Cc4ccccc4)c3)nn2c(N2CCC(C)(C)CC2)c1[C@H](OC(C)(C)C)C(=O)O` [Example 39, (S)-2-(2-(1-Benzyl-1H-pyrazol-4-yl)-7-(4,4-dimethylpiperidin-1-yl)-5-methylpyrazolo[1,5-a]pyrimidin-6-yl)-2-(tert-butoxy)acetic acid], for which the EC50 is 7 nM.

On to `Cc1nc2cc(-c3ncc(Cc4ccc(F)cc4)s3)nn2c(N2CCC(C)(C)CC2)c1[C@H](OC(C)(C)C)C(=O)O` [Example 13, (S)-2-(tert-Butoxy)-2-(7-(4,4-dimethylpiperidin-1-yl)-2-(5-(4-fluorobenzyl)thiazol-2-yl)-5-methylpyrazolo[1,5-a]pyrimidin-6-yl)acetic acid], for which the EC50 is 14 nM.

Staying with this test, now noted: NL-RLuc virus infecting MT-2 cells, 5 days of incubation, luciferase readout; at least 2 experiments; serum condition not given; read-out: EC50.
On to `Cc1nc2cc(N3CCC(Oc4ccccc4)C3=O)nn2c(N2CCC(C)(C)CC2)c1[C@H](OC(C)(C)C)C(=O)O` (stereo partly drawn) [Example 31, (2S)-2-(tert-Butoxy)-2-(7-(4,4-dimethylpiperidin-1 yl)-5-methyl-2-(2-oxo-3-phenoxypyrrolidin-1-yl)pyrazolo[1,5-a]pyrimidin-6-yl)acetic acid], for which the concentration for a half-maximal effect (EC50) amounted to 813 nM.

Regarding `Cc1nc2cc(N3C(=O)OCC3Cc3ccccc3)nn2c(N2CCC(C)(C)CC2)c1[C@H](OC(C)(C)C)C(=O)O` (stereo partly drawn) [Example 28, (2S)-2-(2-(4-Benzyl-2-oxooxazolidin-3-yl)-7-(4,4-dimethylpiperidin-1-yl)-5-methylpyrazolo[1,5-a]pyrimidin-6-yl)-2-(tert-butoxy)acetic acid], the concentration giving a half-maximal response (EC50) came to 152 nM.

For `Cc1nc2cc(N3CC(Cc4ccccc4)OC3=O)nn2c(N2CCC(C)(C)CC2)c1[C@H](OC(C)(C)C)C(=O)O` (stereo partly drawn) [Example 29, (2S)-2-(2-(5-Benzyl-2-oxooxazolidin-3-yl)-7-(4,4-dimethylpiperidin-1-yl)-5-methylpyrazolo[1,5-a]pyrimidin-6-yl)-2-(tert-butoxy)acetic acid], the EC50 was found to be 6 nM.

In the case of `Cc1nc2cc(N3C(=O)OCC3Cc3ccccc3)nn2c(N2CCC(C)(C)CC2)c1[C@H](OC(C)(C)C)C(=O)O` (stereo partly drawn) [Example 27, (2S)-2-(2-(4-Benzyl-2-oxooxazolidin-3-yl)-7-(4,4-dimethylpiperidin-1-yl)-5-methylpyrazolo[1,5-a]pyrimidin-6-yl)-2-(tert-butoxy)acetic acid], the EC50 came to 478 nM.

Source of the values: patent publication US9580431B2, “Inhibitors of human immunodeficiency virus replication” (priority 2013, dated 2017).
